Like-named read-outs stand apart in the source and are kept apart here.
How the values were obtained:
PfCRT^Ecu1110 [1] = target: T1, PfCRT^Ecu1110 (Plasmodium falciparum, UniProt Q9N623, A220S/I356L/K76T/N326D); test: cell-based; format: cell-based; details: for Uptake of [3H]CQ (% PfCRTEcu1110 control), trans-stimulation / PfCRT-mediated [3H]CQ transport, trans-stimulation (% PfCRTEcu1110 control): PfCRTEcu1110 oocytes; for Uptake of [3H]CQ (% PfCRTEcu1110 control), trans-stimulation / Uptake of [3H]CQ (% PfCRTDd2 control), trans-stimulation, PfCRTEcu1110: total [3H]CQ transport; for Uptake of [3H]CQ (% PfCRTEcu1110 control), trans-stimulation: normalised to the oocyte type control; for PfCRT-mediated [3H]CQ transport, trans-stimulation (% PfCRTEcu1110 control): normalised to oocyte type control; for Uptake of [3H]CQ (% PfCRTDd2 control), trans-stimulation, PfCRTEcu1110 / [3H]CQ transport (% PfCRTDd2 control), trans-stimulation, PfCRTEcu1110: mean ± SEM, SEM; for [3H]CQ transport (% PfCRTDd2 control), trans-stimulation, PfCRTEcu1110: PfCRT-mediated component (background subtracted), sheet title says normalised to PfCRTDd2 control
Outline: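 Transport measured in Xenopus oocytes expressing the transporters, 1.5 h at 27.5 °C in ND96 pH 5.5 unless noted. For trans-stimulation, VF-6 injected in 25 nL ND96 at pH 5.0–7.0 or Na^+-free (choline) buffer; intracellular levels based on ~400 nL oocyte volume. Ten oocytes per treatment, ≥4 experiments.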

PfCRT^Dd2 = PfCRT^Dd2 (Plasmodium falciparum, UniProt Q9N623, A220S/I356T/K76T/M74I/N326S/N75E/Q271E/R371I); test: [3H]CQ uptake into Xenopus oocytes, cis-inhibition by unlabelled solute; format: cell-based; details: for Uptake of [3H]CQ (% PfCRTDd2 control), cis-inhibition / PfCRT-mediated [3H]CQ transport, cis-inhibition (% PfCRTDd2 control): PfCRTDd2 oocytes; for Uptake of [3H]CQ (% PfCRTDd2 control), cis-inhibition / Uptake of [3H]CQ (% PfCRTDd2 control), cis-inhibition, PfCRTDd2: total [3H]CQ transport; for Uptake of [3H]CQ (% PfCRTDd2 control), cis-inhibition: normalised to the oocyte type control; for PfCRT-mediated [3H]CQ transport, cis-inhibition (% PfCRTDd2 control): background [3H]CQ accumulation subtracted, normalised to oocyte type control; for Uptake of [3H]CQ (% PfCRTDd2 control), cis-inhibition, PfCRTDd2: mean ± SEM, SEM
Outline: (§1)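 Washed oocytes (ten per treatment) were exposed to label in pH 5.5 ND96 for 1.5 h at 27.5 °C. Buffer was then removed, cells rinsed in ice-cold ND96, lysed in SDS and counted.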

PfCRT^Ecu1110 [2] = target: T1, PfCRT^Ecu1110; test: as above; format: cell-based; details: for Uptake of [3H]CQ (% PfCRTEcu1110 control), cis-inhibition / PfCRT-mediated [3H]CQ transport, cis-inhibition (% PfCRTEcu1110 control): PfCRTEcu1110 oocytes; for Uptake of [3H]CQ (% PfCRTEcu1110 control), cis-inhibition / Uptake of [3H]CQ (% PfCRTDd2 control), cis-inhibition, PfCRTEcu1110: total [3H]CQ transport; for Uptake of [3H]CQ (% PfCRTEcu1110 control), cis-inhibition: normalised to the oocyte type control; for PfCRT-mediated [3H]CQ transport, cis-inhibition (% PfCRTEcu1110 control): background [3H]CQ accumulation subtracted, normalised to oocyte type control; for [3H]CQ transport (% PfCRTEcu1110 control), cis-inhibition, PfCRTEcu1110: PfCRT-mediated component (background subtracted), sheet title says normalised to PfCRTDd2 control; for [3H]CQ transport (% PfCRTEcu1110 control), cis-inhibition, PfCRTEcu1110 / Uptake of [3H]CQ (% PfCRTDd2 control), cis-inhibition, PfCRTEcu1110: mean ± SEM, SEM
Outline: as §1

PfCRT = test: Test of solutes as potential co-substrates for influx of VF-6 via PfCRT into the oocyte; format: cell-based, Plasmodium falciparum; set-up: key: X: Compounds that have been tested as potential co-substrates but are not required for influx of VF-6 via PfCRT into the oocyte; details: X = tested
non-expressing oocytes = format: cell-based, Xenopus laevis; details: total [3H]CQ transport; for Uptake of [3H]CQ (% non-expressing oocyte control), trans-stimulation: non-expressing oocytes, normalised to the oocyte type control; for Uptake of [3H]CQ (% PfCRTDd2 control), trans-stimulation, non-expressing oocytes: mean ± SEM, SEM
Outline: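 Oocytes (ten per treatment, ≥4 independent frogs/days) were preloaded by injecting VF-6 in 25 nL ND96 at pH 5.0, 5.5, 6.0 or 7.0, or Na^+-free choline buffer, then uptake run 1.5 h, 27.5 °C, ND96 pH 5.5 by default. Internal concentrations assumed ~400 nL oocyte volume.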

[3] = [test solute]i = 45 mM (30 mM for some solutes due to solubility)
[4] = [test solute]i = 5 mM (intracellular)
[5] = [test solute]i = 45 mM (intracellular; 30 mM for some solutes due to solubility)

Sequence of PfCRT^Dd2 (Q9N623 whole entry A220S/I356T/K76T/M74I/N326S/N75E/Q271E/R371I): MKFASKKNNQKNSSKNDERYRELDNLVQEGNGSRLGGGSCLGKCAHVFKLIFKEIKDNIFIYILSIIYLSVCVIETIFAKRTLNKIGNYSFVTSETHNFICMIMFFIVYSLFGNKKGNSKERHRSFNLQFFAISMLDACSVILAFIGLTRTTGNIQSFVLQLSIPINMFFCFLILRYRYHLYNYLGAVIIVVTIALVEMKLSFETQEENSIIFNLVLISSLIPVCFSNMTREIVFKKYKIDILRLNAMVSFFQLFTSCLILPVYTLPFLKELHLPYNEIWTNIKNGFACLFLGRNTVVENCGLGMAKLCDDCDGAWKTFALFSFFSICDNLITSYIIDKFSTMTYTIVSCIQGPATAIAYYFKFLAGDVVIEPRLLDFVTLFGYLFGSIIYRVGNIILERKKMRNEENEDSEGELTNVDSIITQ
T1 sequence (Q9N623 whole entry A220S/I356L/K76T/N326D): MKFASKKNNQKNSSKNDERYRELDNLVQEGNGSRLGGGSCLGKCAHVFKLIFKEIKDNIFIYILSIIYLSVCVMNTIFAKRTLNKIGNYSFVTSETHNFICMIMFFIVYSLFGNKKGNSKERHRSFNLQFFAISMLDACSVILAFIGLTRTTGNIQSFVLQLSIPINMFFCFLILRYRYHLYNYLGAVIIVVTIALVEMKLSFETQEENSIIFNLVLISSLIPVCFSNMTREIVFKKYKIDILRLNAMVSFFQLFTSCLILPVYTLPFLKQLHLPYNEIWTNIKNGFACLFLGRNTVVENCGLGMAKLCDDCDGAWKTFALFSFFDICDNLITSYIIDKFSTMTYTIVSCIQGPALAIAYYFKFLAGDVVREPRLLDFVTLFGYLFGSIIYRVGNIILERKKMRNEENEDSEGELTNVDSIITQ

NC(=O)C[C@H](N)C(=O)O [L-asparagine]
Uptake of [3H]CQ (% PfCRTEcu1110 control), trans-stimulation (PfCRT^Ecu1110 [1]; [test solute]i = 5 mM): 98 ± 4.1 % PfCRTEcu1110 control
Uptake of [3H]CQ (% PfCRTEcu1110 control), trans-stimulation (PfCRT^Ecu1110 [1]; [3]): 98 ± 3.2 % PfCRTEcu1110 control
PfCRT-mediated [3H]CQ transport, trans-stimulation (% PfCRTEcu1110 control) (PfCRT^Ecu1110 [1]; [4]): 96 ± 2.1 % PfCRTEcu1110 control
PfCRT-mediated [3H]CQ transport, trans-stimulation (% PfCRTEcu1110 control) (PfCRT^Ecu1110 [1]; [5]): 96 ± 2.7 % PfCRTEcu1110 control
Uptake of [3H]CQ (% PfCRTDd2 control), trans-stimulation, PfCRTEcu1110 (PfCRT^Ecu1110 [1]; [4]): 35 ± 1.8 % PfCRTDd2 control
Uptake of [3H]CQ (% PfCRTDd2 control), trans-stimulation, PfCRTEcu1110 (PfCRT^Ecu1110 [1]; [5]): 35 ± 2.1 % PfCRTDd2 control
[3H]CQ transport (% PfCRTDd2 control), trans-stimulation, PfCRTEcu1110 (PfCRT^Ecu1110 [1]; [test solute]i = 5 mM (injected)): 32 ± 1.6 % PfCRTEcu1110 control
[3H]CQ transport (% PfCRTDd2 control), trans-stimulation, PfCRTEcu1110 (PfCRT^Ecu1110 [1]; [3]): 32 ± 2.1 % PfCRTEcu1110 control
Uptake of [3H]CQ (% PfCRTDd2 control), cis-inhibition (PfCRT^Dd2; [test solute] = 0.5 mM): 100 ± 5.3 % PfCRTDd2 control
Uptake of [3H]CQ (% PfCRTDd2 control), cis-inhibition (PfCRT^Dd2; [test solute] = 2 mM): 100 ± 8.5 % PfCRTDd2 control
PfCRT-mediated [3H]CQ transport, cis-inhibition (% PfCRTDd2 control) (PfCRT^Dd2; [test solute] = 0.5 mM): 98 ± 4.1 % PfCRTDd2 control
PfCRT-mediated [3H]CQ transport, cis-inhibition (% PfCRTDd2 control) (PfCRT^Dd2; [test solute] = 1 mM): 99 ± 6.2 % PfCRTDd2 control
PfCRT-mediated [3H]CQ transport, cis-inhibition (% PfCRTDd2 control) (PfCRT^Dd2; [test solute] = 2 mM): 95 ± 3.5 % PfCRTDd2 control
Uptake of [3H]CQ (% PfCRTDd2 control), cis-inhibition, PfCRTDd2 (PfCRT^Dd2; [test solute] = 0.5 mM): 100 ± 5.3 % PfCRTDd2 control
Uptake of [3H]CQ (% PfCRTDd2 control), cis-inhibition, PfCRTDd2 (PfCRT^Dd2; [test solute] = 1 mM): 101 ± 8.1 % PfCRTDd2 control
Uptake of [3H]CQ (% PfCRTDd2 control), cis-inhibition, PfCRTDd2 (PfCRT^Dd2; [test solute] = 2 mM): 100 ± 8.5 % PfCRTDd2 control
Uptake of [3H]CQ (% PfCRTEcu1110 control), cis-inhibition (PfCRT^Ecu1110 [2]; [test solute] = 0.5 mM): 96 ± 6.6 % PfCRTEcu1110 control
Uptake of [3H]CQ (% PfCRTEcu1110 control), cis-inhibition (PfCRT^Ecu1110 [2]; [test solute] = 1 mM): 88 ± 6.1 % PfCRTEcu1110 control
Uptake of [3H]CQ (% PfCRTEcu1110 control), cis-inhibition (PfCRT^Ecu1110 [2]; [test solute] = 2 mM): 102 ± 6.2 % PfCRTEcu1110 control
PfCRT-mediated [3H]CQ transport, cis-inhibition (% PfCRTEcu1110 control) (PfCRT^Ecu1110 [2]; [test solute] = 0.5 mM): 94 ± 3.6 % PfCRTEcu1110 control
PfCRT-mediated [3H]CQ transport, cis-inhibition (% PfCRTEcu1110 control) (PfCRT^Ecu1110 [2]; [test solute] = 1 mM): 84 ± 4.9 % PfCRTEcu1110 control
PfCRT-mediated [3H]CQ transport, cis-inhibition (% PfCRTEcu1110 control) (PfCRT^Ecu1110 [2]; [test solute] = 2 mM): 100 ± 5.1 % PfCRTEcu1110 control
[3H]CQ transport (% PfCRTEcu1110 control), cis-inhibition, PfCRTEcu1110 (PfCRT^Ecu1110 [2]; [test solute] = 1 mM): 25 ± 0.6 % PfCRTEcu1110 control
[3H]CQ transport (% PfCRTEcu1110 control), cis-inhibition, PfCRTEcu1110 (PfCRT^Ecu1110 [2]; [test solute] = 2 mM): 30 ± 0.2 % PfCRTEcu1110 control
Uptake of [3H]CQ (% PfCRTDd2 control), cis-inhibition, PfCRTEcu1110 (PfCRT^Ecu1110 [2]; [test solute] = 0.5 mM): 31 ± 1.5 % PfCRTDd2 control
Uptake of [3H]CQ (% PfCRTDd2 control), cis-inhibition, PfCRTEcu1110 (PfCRT^Ecu1110 [2]; [test solute] = 1 mM): 28 ± 1.8 % PfCRTDd2 control
Uptake of [3H]CQ (% PfCRTDd2 control), cis-inhibition, PfCRTEcu1110 (PfCRT^Ecu1110 [2]; [test solute] = 2 mM): 33 ± 2.2 % PfCRTDd2 control
Tested as potential co-substrate but not required for influx of VF-6 via PfCRT into the oocyte (PfCRT): X
Uptake of [3H]CQ (% non-expressing oocyte control), trans-stimulation (non-expressing oocytes; [test solute]i = 5 mM): 100 ± 3.7 % non-expressing oocyte control
Uptake of [3H]CQ (% non-expressing oocyte control), trans-stimulation (non-expressing oocytes; [3]): 99 ± 3.0 % non-expressing oocyte control
Uptake of [3H]CQ (% PfCRTDd2 control), trans-stimulation, non-expressing oocytes (non-expressing oocytes; [4]): 3.2 ± 0.02 % PfCRTDd2 control
Uptake of [3H]CQ (% PfCRTDd2 control), trans-stimulation, non-expressing oocytes (non-expressing oocytes; [5]): 2.4 ± 0.02 % PfCRTDd2 control

— publication PMC7413254 (Nature Communications, 2020)
